Test results published in ChEMBL document CHEMBL3822437, “N,N-Bis(glycityl)amines as anti-cancer drugs” (Bioorg Med Chem, 2016).

Legend:
[1] = Antiproliferative activity against human LN18 cells after 48 hrs by MTT assay; format: functional, cell-based; details: LN-18, 48 h
[2] = Antiproliferative activity against human SVGp12 cells after 48 hrs by MTT assay; format: cell-based; details: SVGp12, 48 h
[3] = Selectivity index, ratio of IC50 for human SVGp12 cells to IC50 for human LN18 cells; format: functional
cells = details: Homo sapiens, HL-60, 48 h
Description: Antiproliferative activity against human HL60 cells after 48 hrs by MTT assay

HEK293 [4] = experiment: Antiproliferative activity against HEK293 cells after 48 hrs by MTT assay; format: cell-based; details: Homo sapiens, HEK293, 48 h
HEK293 [5] = experiment: Selectivity index, ratio of IC50 for HEK293 cells to IC50 for human HL60 cells; format: functional
[6] = Antiproliferative activity against human THP1 cells after 48 hrs by MTT assay; format: functional, cell-based; details: THP-1, 48 h

SMILES | IC50 [1] [µM] | IC50 [2] [µM] | Ratio IC50 [3] | IC50 (cells) [µM] | IC50 (HEK293 [4]) [µM] | Ratio IC50 (HEK293 [5]) | IC50 [6] [µM]
OC[C@@H](O)[C@@H](O)[C@H](O)[C@@H](O)CN(CCc1ccccc1)C[C@H](O)[C@@H](O)[C@H](O)[C@H](O)CO | 290 | 212 | 0.731 | 91.3 |  |  | 
OC[C@@H](O)[C@@H](O)[C@@H](O)CN(CCc1ccccc1)C[C@H](O)[C@H](O)[C@H](O)CO | 205 |  |  | 89.4 |  |  | 
OC[C@@H](O)[C@H](O)[C@@H](O)CN(CCc1ccccc1)C[C@H](O)[C@@H](O)[C@H](O)CO | 255 |  |  | 136 | 215 | 1.58 | 
CCCCCCCCCCCCCCCCN(CC[C@H](O)[C@H](O)CO)CC[C@H](O)[C@H](O)CO | 30.5 | 26.6 | 0.872 | 6.44 | 31.1 | 4.83 | 
OC[C@@H](O)[C@@H](O)[C@H](O)CN(CCc1ccccc1)C[C@@H](O)[C@H](O)[C@H](O)CO | 257 | 222 | 0.864 | 121 | 230 | 1.9 | 
CCCCCCCCCCCCCCCCN(CC[C@@H](O)[C@H](O)[C@H](O)CO)CC[C@@H](O)[C@H](O)[C@H](O)CO | 50.6 |  |  | 6.66 |  |  | 
C[S+](C)[O-] [DIMETHYL SULFOXIDE] | 223 | 229 | 1.03 | 108 | 232 | 2.15 | 119
COc1cccc2c1C(=O)c1c(O)c3c(c(O)c1C2=O)C[C@@](O)(C(=O)CO)C[C@@H]3O[C@H]1C[C@H](N)[C@H](O)[C@H](C)O1 [DOXORUBICIN] | 68.9 | 4.21 |  | 5.5 | 44.4 |  | 7.19
